Results as given in patent publication US9322066B2, “Predictors for cancer treatment” (priority 2011, dated 2016).

Tested on: relapsed or refractory, rituximab-naive or -sensitive follicular B-cell NHL
Experiment: Time to next anti-lymphoma therapy, Vc-R vs rituximab study, by biomarker
Type: in vivo, human
Set-up: Median, Time to Next Anti-Lymphoma Therapy / Time to Next Anti-Lymphoma Therapy, Median: unit not given here
From the text: Non-Hodgkin lymphoma (NHL) encompasses several unique malignant lymphoid disease entities that vary in clinical behavior, morphologic appearance, immunologic, and molecular phenotype. […] A randomized, open-label, active-controlled, multicenter, multinational, prospective study to compare the efficacy and safety of the combination of bortezomib and rituximab (Vc-R) to single-agent rituximab in subjects who have relapsed or refractory, rituximab-naive or -sensitive follicular B-cell NHL was performed.
Subjects were centrally randomized to Treatment Groups A (Vc-R) or B (rituximab) in a 1:1 ratio taking into account the following stratification factors: • Follicular Lymphoma International Prognostic Index (FLIPI) score (low [0 or 1 factor], intermediate [2 factors], high [≧3 factors]); • Prior rituximab therapy (yes, no); • Time since last dose of anti-lymphoma therapy (≦1 year, >1 year); • Region (United States/Canada, European Union, Rest of World).
The following clinical endpoints were included in the analysis within each treatment group and an overall comparison was made with the biomarker-related endpoints: Progression-free survival, defined as the interval between the date of randomization and the date of progressive disease (PD) or death, whichever is first reported in the ITT population; overall survival; overall response rate (complete response [CR]+CR unconfirmed [CRu]+partial response [PR]); overall CR rate (CR+CRu); duration of response; time to next anti-lymphoma therapy; and treatment free interval.

[1] = 20S % NUCLEAR STAINING: 0-20, Female, IRC Review
[2] = 20S % NUCLEAR STAINING: 60-70, Male, IRC Review
[3] = 20S % NUCLEAR STAINING: 60-70, Prior Rituximab Therapy, IRC Review
[4] = 20S INTENSITY CYTOPLASMIC SIGNAL: ≧3+, European Union, IRC Review
[5] = 20S INTENSITY CYTOPLASMIC SIGNAL: ≧3+, Male, IRC Review
[6] = BCL2/A43G: MND, subgroup White, IRC review
[7] = BCL2/C.-11C > T: MND, subgroup White, IRC review
[8] = BCL2/E29K: MND, subgroup White, IRC review
[9] = BCL2/P46L: MND, subgroup White, IRC review
[10] = BCL2/P46S: MND, subgroup White, IRC review
[11] = BCL2/P59L: MND, subgroup White, IRC review
[12] = BCL2/P59S: MND, subgroup White, IRC review
[13] = BCL2/Q52P: MND, subgroup White, IRC review
[14] = BCL2/R106H: MND, subgroup White, IRC review
[15] = CD68 OVERALL POSITIVE: 0-25, 2 Prior Lines of Therapy, IRC Review
[16] = CD68 OVERALL POSITIVE: 0-25, >1 year since last anti-lymphoma treatment, IRC Review
[17] = CD68 OVERALL POSITIVE: 0-25, Ann Arbor Stage III, IRC Review
[18] = CD68 OVERALL POSITIVE: 0-25, Ann Arbor Stage IV, IRC Review
[19] = CD68 OVERALL POSITIVE: 0-25, European Union, IRC Review
[20] = CD68 OVERALL POSITIVE: 0-25, Female, IRC Review
[21] = CD68 OVERALL POSITIVE: 0-25, Intermediate FLIPI Score, IRC Review
[22] = CD68 OVERALL POSITIVE: 0-25, Low FLIPI Score, IRC Review
[23] = CD68 OVERALL POSITIVE: 0-25, Male, IRC Review
[24] = CD68 OVERALL POSITIVE: 0-25, No High Tumor Burden, IRC Review
[25] = CD68 OVERALL POSITIVE: 0-25, No Prior Rituximab Therapy, IRC Review
[26] = CD68 OVERALL POSITIVE: 0-25, No Subgroup, IRC Review
[27] = CD68 OVERALL POSITIVE: 0-25, Prior Rituximab Therapy, IRC Review
[28] = CD68 OVERALL POSITIVE: 0-25, White, IRC Review
[29] = CD68 OVERALL POSITIVE: 0-25, ≦65 years old, IRC Review
[30] = CD68 OVERALL POSITIVE: >75, Male, IRC Review
[31] = CD68 POSITIVE FOLLICULAR: 0-25, >1 year since last anti-lymphoma treatment, IRC Review
[32] = CD68 POSITIVE FOLLICULAR: 0-25, Ann Arbor Stage III, IRC Review
[33] = CD68 POSITIVE FOLLICULAR: 0-25, Asian, IRC Review
[34] = CD68 POSITIVE FOLLICULAR: 0-25, Female, IRC Review
[35] = CD68 POSITIVE FOLLICULAR: 0-25, Intermediate FLIPI Score, IRC Review
[36] = CD68 POSITIVE FOLLICULAR: 0-25, No High Tumor Burden, IRC Review
[37] = CD68 POSITIVE FOLLICULAR: 0-25, No Prior Rituximab Therapy, IRC Review
[38] = CD68 POSITIVE FOLLICULAR: 0-25, No Subgroup, IRC Review
[39] = CD68 POSITIVE FOLLICULAR: 0-25, White, IRC Review
[40] = CD68 POSITIVE FOLLICULAR: 0-25, ≦65 years old, IRC Review
[41] = CD68 POSITIVE PERIFOLLICULAR: 0-25, 2 Prior Lines of Therapy, IRC Review
[42] = CD68 POSITIVE PERIFOLLICULAR: 0-25, >1 year since last anti-lymphoma treatment, IRC Review
[43] = CD68 POSITIVE PERIFOLLICULAR: 0-25, Ann Arbor Stage IV, IRC Review
[44] = CD68 POSITIVE PERIFOLLICULAR: 0-25, Female, IRC Review
[45] = CD68 POSITIVE PERIFOLLICULAR: 0-25, Intermediate FLIPI Score, IRC Review
[46] = CD68 POSITIVE PERIFOLLICULAR: 0-25, No High Tumor Burden, IRC Review
[47] = CD68 POSITIVE PERIFOLLICULAR: 0-25, No Prior Rituximab Therapy, IRC Review
[48] = CD68 POSITIVE PERIFOLLICULAR: 0-25, No Subgroup, IRC Review

Substance: rituximab
- Evt/N, Time to Next Anti-Lymphoma Therapy [1]: 35/61
- Median, Time to Next Anti-Lymphoma Therapy [1]: 568
- Evt/N, Time to Next Anti-Lymphoma Therapy [2]: 14/16
- Median, Time to Next Anti-Lymphoma Therapy [2]: 247
- Evt/N, Time to Next Anti-Lymphoma Therapy [3]: 17/21
- Median, Time to Next Anti-Lymphoma Therapy [3]: 343
- Evt/N, Time to Next Anti-Lymphoma Therapy [4]: 34/52
- Median, Time to Next Anti-Lymphoma Therapy [4]: 533
- Evt/N, Time to Next Anti-Lymphoma Therapy [5]: 20/27
- Median, Time to Next Anti-Lymphoma Therapy [5]: 421
- Median, Time to Next Anti-Lymphoma Therapy (BCL2/A43G: MND, subgroup Ann Arbor Stage IV, IRC review): 450
- Evt/N, Time to Next Anti-Lymphoma Therapy [6]: 89/140
- Median, Time to Next Anti-Lymphoma Therapy [6]: 504
- Median, Time to Next Anti-Lymphoma Therapy (BCL2/C.-11C > T: MND, subgroup Ann Arbor Stage IV, IRC review): 450
- Evt/N, Time to Next Anti-Lymphoma Therapy [7]: 110/168
- Median, Time to Next Anti-Lymphoma Therapy [7]: 504
- Evt/N, Time to Next Anti-Lymphoma Therapy [8]: 83/129
- Median, Time to Next Anti-Lymphoma Therapy [8]: 485
- Evt/N, Time to Next Anti-Lymphoma Therapy [9]: 74/117
- Median, Time to Next Anti-Lymphoma Therapy [9]: 505
- Evt/N, Time to Next Anti-Lymphoma Therapy [10]: 81/130
- Median, Time to Next Anti-Lymphoma Therapy [10]: 505
- Evt/N, Time to Next Anti-Lymphoma Therapy [11]: 80/129
- Median, Time to Next Anti-Lymphoma Therapy [11]: 533
- Evt/N, Time to Next Anti-Lymphoma Therapy [12]: 81/128
- Median, Time to Next Anti-Lymphoma Therapy [12]: 505
- Evt/N, Time to Next Anti-Lymphoma Therapy [13]: 85/135
- Median, Time to Next Anti-Lymphoma Therapy [13]: 504
- Evt/N, Time to Next Anti-Lymphoma Therapy [14]: 93/140
- Median, Time to Next Anti-Lymphoma Therapy [14]: 501
- time to next treatment interval (Biomarker positive (PSMB1 P11A heterozygote and CD68 Low)): 14.8 mo
- Evt/N, Time to Next Anti-Lymphoma Therapy [15]: 6/8
- Median, Time to Next Anti-Lymphoma Therapy [15]: 204
- Evt/N, Time to Next Anti-Lymphoma Therapy [16]: 17/26
- Median, Time to Next Anti-Lymphoma Therapy [16]: 409
- Evt/N, Time to Next Anti-Lymphoma Therapy [17]: 12/16
- Median, Time to Next Anti-Lymphoma Therapy [17]: 276
- Evt/N, Time to Next Anti-Lymphoma Therapy [18]: 15/22
- Median, Time to Next Anti-Lymphoma Therapy [18]: 434
- Evt/N, Time to Next Anti-Lymphoma Therapy [19]: 14/22
- Median, Time to Next Anti-Lymphoma Therapy [19]: 374
- Evt/N, Time to Next Anti-Lymphoma Therapy [20]: 16/26
- Median, Time to Next Anti-Lymphoma Therapy [20]: 434
- Evt/N, Time to Next Anti-Lymphoma Therapy [21]: 7/11
- Median, Time to Next Anti-Lymphoma Therapy [21]: 485
- Evt/N, Time to Next Anti-Lymphoma Therapy [22]: 8/10
- Median, Time to Next Anti-Lymphoma Therapy [22]: 422
- Evt/N, Time to Next Anti-Lymphoma Therapy [23]: 14/18
- Median, Time to Next Anti-Lymphoma Therapy [23]: 251
- Evt/N, Time to Next Anti-Lymphoma Therapy [24]: 8/14
- Median, Time to Next Anti-Lymphoma Therapy [24]: 552
- Evt/N, Time to Next Anti-Lymphoma Therapy [25]: 12/19
- Median, Time to Next Anti-Lymphoma Therapy [25]: 533
- Evt/N, Time to Next Anti-Lymphoma Therapy [26]: 30/44
- Median, Time to Next Anti-Lymphoma Therapy [26]: 409
- Evt/N, Time to Next Anti-Lymphoma Therapy [27]: 18/25
- Median, Time to Next Anti-Lymphoma Therapy [27]: 235
- Evt/N, Time to Next Anti-Lymphoma Therapy [28]: 24/35
- Median, Time to Next Anti-Lymphoma Therapy [28]: 409
- Evt/N, Time to Next Anti-Lymphoma Therapy [29]: 24/34
- Median, Time to Next Anti-Lymphoma Therapy [29]: 374
- Evt/N, Time to Next Anti-Lymphoma Therapy (CD68 OVERALL POSITIVE: 51-75, No High Tumor Burden, IRC Review): 10/25
- Evt/N, Time to Next Anti-Lymphoma Therapy [30]: 8/9
- Median, Time to Next Anti-Lymphoma Therapy [30]: 427
- Evt/N, Time to Next Anti-Lymphoma Therapy [31]: 22/34
- Median, Time to Next Anti-Lymphoma Therapy [31]: 550
- Evt/N, Time to Next Anti-Lymphoma Therapy [32]: 19/24
- Median, Time to Next Anti-Lymphoma Therapy [32]: 332
- Evt/N, Time to Next Anti-Lymphoma Therapy [33]: 5/6
- Median, Time to Next Anti-Lymphoma Therapy [33]: 220
- Evt/N, Time to Next Anti-Lymphoma Therapy [34]: 23/37
- Median, Time to Next Anti-Lymphoma Therapy [34]: 462
- Evt/N, Time to Next Anti-Lymphoma Therapy [35]: 14/20
- Median, Time to Next Anti-Lymphoma Therapy [35]: 421
- Evt/N, Time to Next Anti-Lymphoma Therapy [36]: 14/22
- Median, Time to Next Anti-Lymphoma Therapy [36]: 573
- Evt/N, Time to Next Anti-Lymphoma Therapy [37]: 23/36
- Median, Time to Next Anti-Lymphoma Therapy [37]: 485
- Evt/N, Time to Next Anti-Lymphoma Therapy [38]: 40/60
- Median, Time to Next Anti-Lymphoma Therapy [38]: 462
- Evt/N, Time to Next Anti-Lymphoma Therapy [39]: 32/48
- Median, Time to Next Anti-Lymphoma Therapy [39]: 462
- Evt/N, Time to Next Anti-Lymphoma Therapy [40]: 33/46
- Median, Time to Next Anti-Lymphoma Therapy [40]: 332
- Evt/N, Time to Next Anti-Lymphoma Therapy [41]: 6/8
- Median, Time to Next Anti-Lymphoma Therapy [41]: 171
- Evt/N, Time to Next Anti-Lymphoma Therapy [42]: 15/24
- Median, Time to Next Anti-Lymphoma Therapy [42]: 533
- Evt/N, Time to Next Anti-Lymphoma Therapy [43]: 11/15
- Median, Time to Next Anti-Lymphoma Therapy [43]: 374
- Evt/N, Time to Next Anti-Lymphoma Therapy [44]: 19/28
- Median, Time to Next Anti-Lymphoma Therapy [44]: 374
- Evt/N, Time to Next Anti-Lymphoma Therapy [45]: 7/13
- Median, Time to Next Anti-Lymphoma Therapy [45]: 501
- Evt/N, Time to Next Anti-Lymphoma Therapy [46]: 8/13
- Median, Time to Next Anti-Lymphoma Therapy [46]: 501
- Evt/N, Time to Next Anti-Lymphoma Therapy [47]: 12/18
- Median, Time to Next Anti-Lymphoma Therapy [47]: 533
- Evt/N, Time to Next Anti-Lymphoma Therapy [48]: 26/39
- Median, Time to Next Anti-Lymphoma Therapy [48]: 374
